According to patent publication US7144880B2, “Compositions relating to novel compounds and targets thereof” (Regents of the University of Michigan, priority 2003, dated 2006):
Like-named read-outs stand apart in the source and are kept apart here.

Tests used:
Ramos B cells [1] = assay type: cell-based, human; conditions: micromolar FK506
Ramos B cells [2] = assay: cells; assay type: cell-based, human
Procedure: Cell viability is assessed by staining with propidium iodide (PI, 1 μg/mL). PI fluorescence is measured using a FACScalibur flow cytometer (Becton Dickinson, San Diego, Calif.). Measurement of hypodiploid DNA is conducted after incubating cells in DNA-labeling solution (50 μg/mL of PI in PBS containing 0.2% Triton and 10 μg/mL RNAse A) overnight at 4 degrees C. The data is analyzed using the CellQuest software excluding aggregates.

human OSCP = target: T1, human OSCP (Homo sapiens, UniProt P48047); assay: Quenching of intrinsic OSCP fluorescence on titration (binding isotherm); conditions: Bz-Cl, binds less tightly
T1 construct: made in house; host or cells: E. coli
T1 sequence (P48047 24-213): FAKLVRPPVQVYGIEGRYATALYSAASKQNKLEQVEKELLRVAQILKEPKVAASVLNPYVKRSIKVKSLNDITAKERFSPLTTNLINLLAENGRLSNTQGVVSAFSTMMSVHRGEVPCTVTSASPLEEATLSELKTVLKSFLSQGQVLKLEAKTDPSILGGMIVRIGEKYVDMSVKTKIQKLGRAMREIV
Excerpt: Oligomycin is a macrolide natural product that binds to the mitochondrial F1F0-ATPase, induces a state 3 to 4 transition, and as a result, generates ROS (e.g., O2^−). In preferred embodiments, the present invention binds the OSCP component of the mitochondrial F1F0-ATPase. In certain embodiments, screening assays of the present invention permit detection of binding partners of the OSCP. OSCP is an intrinsically fluorescent protein. In certain embodiments, titrating a solution of test compounds of the present invention into an E. Coli sample overexpressed with OSCP results in quenching of the intrinsic OSCP fluorescence. In other embodiments, fluorescent or radioactive test compounds can be used in direct binding assays. In other embodiments, competition binding experiments can be conducted. In this type of assay, test compounds are assessed for their ability to compete with Bz-423 for binding to the OSCP. In some embodiments, the compounds of the present invention cause a reduced increase in cellular ROS levels and reduced apoptosis in cells through regulation of the OSCP gene (e.g., altering expression of the OSCP gene). In further embodiments, the present invention functions by altering the molecular motions of the ATPase motor.
To determine if Bz-423 indeed binds to the OSCP and the affinity of the interaction, human OSCP was overexpressed in E. coli. […]

[3] = test system: panel of cells in Table 2; assay: Antiproliferation against the panel of cells, 3 d; assay type: cell-based; conditions: after 3 d
[4] = test system: ornithine decarboxylase (ODC); assay: ODC activity in treated cells, conversion of 3H-ornithine to putrescine; assay type: cell-based; conditions: cells treated 4 h
Procedure: In these experiments, the conversion of ornithine to putrescine was quantified using ^3H-ornithine. For comparisons, control cells were treated with vehicle control or difluoromethyl ornithine (DFMO), a potent inhibitor of ornithine decarboxylase (like Bz-423, DFMO is a potent anti-proliferative agent). […] The reduction in ODC activity was paralleled by a decrease in ODC protein levels measured under the same conditions.
As described above, Bz-423 induced apoptosis was signaled by an ROS response that arose from MRC complex III as a result of the state 3 to 4 transition. It was next sought to determine if the ROS response, critical for apoptosis, also mediated these effects on ODC. If the ROS was required for the decrease in ODC activity, it would likewise be implicated as potentially part of the anti-proliferative response to Bz-423. To test this, Ramos cells were treated with Bz-423, DFMO, or vehicle control for 4 h. In parallel, a second group of cells was pre-incubated with MnTBAP to limit the ROS and then cultured with Bz-423, DFMO, and vehicle control.

cells = assay type: cell-based
[5] = target: T2, mitochondrial F1F0-ATPase (Bos taurus, UniProt P13621); assay: ATPase activity in sub-mitochondrial particles (SMPs); assay type: biochemical, bovine; conditions: 80 μM
T2 construct: from tissue
Excerpt: Oligomycin, a macrolide natural product that binds to the mitochondrial F1F0-ATPase, induces a state 3 to 4 transition and generates O2^− like Bz-423. Based on these similarities, it is possible that the F1F0-ATPase is also the molecular target for Bz-423. To test this hypothesis, the effect of Bz-423 on ATPase activity in sub-mitochondrial particles (SMPs) was examined.
>40 derivatives of Bz-423 were developed to determine the elements on this novel agent required for biological activity. […] The potency of these analogues in cell based assays correlated with the ED50 values in ATPase inhibition experiments using SMPs.

[6] = test system: isolated rat liver mitochondria; assay: ROS production in isolated mitochondria (DCFH oxidation to DCF); assay type: biochemical
Procedure: Male Long Evans rats are starved overnight and sacrificed by decapitation. Liver samples are homogenized in ice cold buffer A (250 mM sucrose, 10 mM Tris, 0.1 mM EGTA, pH 7.4), and nuclei and cellular debris are pelleted (10 min, 830 g, 4° C.). Mitochondria are collected by centrifugation (10 min, 15,000 g, 4° C.), and the supernatant is collected as the S15 fraction. The mitochondrial pellet is washed three times with buffer B (250 mM sucrose, 10 mM Tris, pH 7.4), and re-suspended in buffer B at 20–30 mg/mL. Mitochondria are diluted (0.5 mg/mL) in buffer C (200 mM sucrose, 10 mM Tris, pH 7.4, 1 mM KH2PO4, 10 μM EGTA, 2.5 μM rotenone, 5 mM succinate) containing 2′,7′-dichlorodihydrofluorescin diacetate (DCFH-DA, 1 μM). For state 3 measurements, ADP (2 mM) is included in the buffer, and prior to the addition of Bz-423, mitochondria are allowed to charge for 2 min. To induce state 4, oligomycin (10 μM) is added to buffer C. […] To detect effects on O2^− and delta ψm, mitochondria are incubated for 15 min at 37° C. in buffer C with vehicle, Bz-423, or CCCP containing DHE (5 μM) or DIOC6(3) (20 nM), and aliquots are removed for analysis by fluorescence microscopy.
O2^− production by Bz-423 may result from binding to a protein within mitochondria or a target in another compartment that signals mitochondria to generate ROS. To distinguish between these alternatives, isolated rat liver mitochondria were assayed for ROS production by monitoring the oxidation of 2′,7′-dichlorodihydrofluorescin diacetate to of 2′,7′-dichlorofluorescin in the presence and absence of Bz-423. In this assay, the rate of DCF production increased after a lag period during which endogenous reducing equivalents were consumed and the acetate moieties on the probe were hydrolyzed to yield 2′,7′-dichlorodihydrofluorescin, the redox-active species.

[7] = Ramos B cells, 24 h, propidium iodide exclusion, flow cytometry, error ±5%, read-out: EC50 (μM), cell death

## Cc1cc(C2=NC(Cc3ccc4ccccc4c3)C(=O)N(C)c3ccc(Cl)cc32)ccc1O (centres unmarked) [Compound 16]
Ramos B cells [1]
  Inhibition of compound-induced cell death by FK506: ≈ 60%
Ramos B cells [2]
  Cytotoxic potency compared with Bz-423: does not alter the activity
Ramos B cells [2]; assessed as described in Table 1, read-out: EC50, cell death
  EC50: 3 µM

## CN1C(=O)C(Cc2ccc3ccccc3c2)N=C(c2ccc(Cl)cc2)c2cc(Cl)ccc21 (centres unmarked) [Bz-Cl]
Human OSCP
  Kd: ~5 µM
[3]
  Reduction of proliferation compared with Bz-423: comparable ED50 values
[4]
  Effect on ODC activity: inhibited ODC activity
cells
  Decrease of cytotoxic activity compared to Bz-423: ~80%

## CN1C(=O)C(Cc2ccc3ccccc3c2)N=C(c2ccccc2)c2cc(Cl)ccc21 (centres unmarked) [Compound 2]
Ramos B cells [2]; [7]
  EC50: > 80 µM

## CCC(C)N(C)C(=O)c1cc2ccccc2c(-c2ccccc2Cl)n1 (centres unmarked) [PK11195, reference compound]
[5]
  Inhibition of mitochondrial ATPase activity: do not significantly inhibit
Ramos B cells [2]; Homo sapiens, Ramos B cells, 24 h, propidium iodide exclusion, flow cytometry, error ±5%, read-out: EC50 (μM), cell death
  EC50: > 80 µM

## antimycin A [reference compound]
[6]; state 3 respiration, aerobic, after induction phase, slopes compared to control
  Increase in rate of ROS production versus control: nearly two-fold
[6]; state 4 respiration
  ROS production in state 4 mitochondria: is active

## CN1C(=O)CN=C(c2ccc(Cl)cc2)c2cc(Cl)ccc21 [4-Cl-diazepam, 4-chlorodiazepam]
[5]
  Inhibition of mitochondrial ATPase activity: do not significantly inhibit

## CN1C(=O)CN=C(c2ccc(O)cc2)c2cc(Cl)ccc21 [Compound 1]
Ramos B cells [2]; [7]
  EC50: > 80 µM
